From ChEMBL document CHEMBL5380830, “Development and Therapeutic Implications of Tyrosine Kinase 2 Inhibitors” (J Med Chem, 2023)

Experiments:
[1] = biological target: T1, Tyrosine-protein kinase JAK3 (Homo sapiens, UniProt P52333); assay: Inhibition of JAK3 (unknown origin) using ULight - JAK (Tyr1023) substrate incubated for 60 mins in presence of ATP by envision plate reader based analysis
T1 sequence (P52333 whole entry): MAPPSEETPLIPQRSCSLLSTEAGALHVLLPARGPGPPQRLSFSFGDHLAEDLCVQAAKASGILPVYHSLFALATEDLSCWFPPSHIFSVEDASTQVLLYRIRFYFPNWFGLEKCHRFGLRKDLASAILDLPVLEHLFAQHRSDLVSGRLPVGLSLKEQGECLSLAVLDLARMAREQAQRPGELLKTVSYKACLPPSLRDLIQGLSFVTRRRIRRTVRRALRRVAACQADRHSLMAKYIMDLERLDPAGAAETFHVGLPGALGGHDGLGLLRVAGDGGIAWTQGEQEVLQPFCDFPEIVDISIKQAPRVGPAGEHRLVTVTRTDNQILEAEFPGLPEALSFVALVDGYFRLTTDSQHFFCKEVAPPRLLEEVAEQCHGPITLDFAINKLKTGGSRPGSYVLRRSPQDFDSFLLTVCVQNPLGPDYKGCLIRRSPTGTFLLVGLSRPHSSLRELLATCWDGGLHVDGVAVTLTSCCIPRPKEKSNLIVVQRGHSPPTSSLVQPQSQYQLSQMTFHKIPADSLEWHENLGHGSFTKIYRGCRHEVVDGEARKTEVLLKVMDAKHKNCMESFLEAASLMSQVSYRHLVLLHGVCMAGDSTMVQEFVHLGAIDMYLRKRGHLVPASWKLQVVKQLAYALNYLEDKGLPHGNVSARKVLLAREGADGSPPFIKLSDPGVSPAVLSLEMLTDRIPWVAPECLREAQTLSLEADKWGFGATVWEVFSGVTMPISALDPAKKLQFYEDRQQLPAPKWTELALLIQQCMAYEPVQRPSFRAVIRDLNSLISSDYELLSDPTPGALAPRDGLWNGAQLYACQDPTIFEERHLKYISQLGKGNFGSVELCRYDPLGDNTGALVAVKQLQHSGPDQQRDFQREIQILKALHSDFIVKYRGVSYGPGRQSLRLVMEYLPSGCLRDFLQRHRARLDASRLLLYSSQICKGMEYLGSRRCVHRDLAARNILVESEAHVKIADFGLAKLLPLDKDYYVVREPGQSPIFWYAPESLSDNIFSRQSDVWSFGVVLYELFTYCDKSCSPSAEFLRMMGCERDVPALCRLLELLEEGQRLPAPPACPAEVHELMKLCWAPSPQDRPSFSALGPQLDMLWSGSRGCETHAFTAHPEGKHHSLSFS

[2] = biological target: T2, Non-receptor tyrosine-protein kinase TYK2 (Homo sapiens, UniProt P29597); assay: Binding affinity to human wild-type partial length TYK2 JH2 (G556 to D888 residues) expressed in mammalian expression system by KINOMEscan assay
[3] = biological target: T2, Non-receptor tyrosine-protein kinase TYK2; assay: Inhibition of TYK2 JH2 in human KIT225 cells assessed as reduction of IFNalpha induced STAT1 phosphorylation by AlphaLISA assay; assay type: cell-based
[4] = biological target: T3, JAK2/TYK2 (Homo sapiens, UniProt O60674+P29597); assay: Inhibition of JAK2/TYK2 signal transduction pathway in human PBMC cells assessed as IL-12 induced p-STAT4 level incubated for 30 mins; assay type: cell-based
[5] = biological target: T2, Non-receptor tyrosine-protein kinase TYK2; assay: Inhibition of TYK2 JH1 (unknown origin) at 10 uM relative to control
[6] = biological target: T3, JAK2/TYK2; assay: Inhibition of JAK2/TYK2 signal transduction pathway in human PBMC cells assessed as reduction in GM-CSF induced p-STAT5 level incubated for 20 mins; assay type: cell-based
[7] = biological target: T4, Tyrosine-protein kinase JAK1 (Homo sapiens, UniProt P23458); assay: Binding affinity to JAK1 JH2 (unknown origin)
[8] = biological target: T5, Tyrosine-protein kinase JAK2 (Homo sapiens, UniProt O60674); assay: Inhibition of JAK2 JH1 (unknown origin) at 10 uM relative to control
[9] = Inhibition of IFNalpha induced STAT phosphorylation in HEK293 cells by Western blotting analysis; assay type: cell-based; conditions: Homo sapiens
[10] = Inhibition of IL-23 induced STAT phosphorylation in HEK293 cells by Western blotting analysis; assay type: cell-based; conditions: Homo sapiens
[11] = biological target: T2, Non-receptor tyrosine-protein kinase TYK2; assay: Inhibition of TYK2 JH2 in human TF-1 cells assessed as reduction of IFNalpha induced STAT1 phosphorylation; assay type: cell-based
[12] = Inhibition of IFNalpha induced STAT phosphorylation in human whole blood by fluorescence based analysis; assay type: tissue-based
[13] = biological target: T2, Non-receptor tyrosine-protein kinase TYK2; assay: Binding affinity to TYK2 JH2 (unknown origin)
[14] = biological target: T2, Non-receptor tyrosine-protein kinase TYK2; assay: Inhibition of TYK2 signal transduction pathway in human PBMC cells assessed as IL-2 induced p-STAT5 level; assay type: cell-based
[15] = biological target: T2, Non-receptor tyrosine-protein kinase TYK2; assay: Inhibition of TYK2 signal transduction pathway in human PBMC cells assessed as reduction in GM-CSF induced p-STAT5 level; assay type: cell-based
[16] = biological target: T2, Non-receptor tyrosine-protein kinase TYK2; assay: Inhibition of TYK2 signal transduction pathway in human PBMC cells assessed as IFNalpha induced p-STAT5 level; assay type: cell-based
[17] = biological target: T5, Tyrosine-protein kinase JAK2; assay: Binding affinity to JAK2 JH1 (unknown origin)
[18] = biological target: T2, Non-receptor tyrosine-protein kinase TYK2; assay: Inhibition of TYK2 signal transduction pathway in human TF-1 cells assessed as reduction in GM-CSF induced p-STAT5 level; assay type: cell-based
[19] = Cmax in mouse at 10 mg/kg, po measured upto 24 hrs by LC-MS/MS analysis; assay type: ADME, organism-based; parameters: time < 24 hrs, dose 10 mg/kg, route po; conditions: in vivo
[20] = Half life in mouse at 10 mg/kg, po measured upto 24 hrs by LC-MS/MS analysis; assay type: ADME, organism-based; conditions: in vivo
[21] = AUClast in mouse at 10 mg/kg, po measured upto 24 hrs by LC-MS/MS analysis; assay type: ADME, organism-based; parameters: dose 10 mg/kg, time < 24 hrs, route po; conditions: in vivo
[22] = biological target: T3, JAK2/TYK2; assay: Inhibition of JAK2/TYK2 signal transduction pathway in human NK92 cells assessed as IL-12 induced STAT4 phosphorylation; assay type: cell-based
[23] = biological target: T1, Tyrosine-protein kinase JAK3; assay: Inhibition of human recombinant JAK3 preincubated for 15 mins followed by substrate addition measured after 60 mins by HTRF assay
[24] = biological target: T4, Tyrosine-protein kinase JAK1; assay: Inhibition of human recombinant JAK1 preincubated for 15 mins followed by substrate addition measured after 60 mins by HTRF assay
[25] = biological target: T5, Tyrosine-protein kinase JAK2; assay: Inhibition of human recombinant JAK2 preincubated for 15 mins followed by substrate addition measured after 60 mins by HTRF assay
[26] = biological target: T2, Non-receptor tyrosine-protein kinase TYK2; assay: Inhibition of human recombinant TYK2 preincubated for 15 mins followed by substrate addition measured after 60 mins by HTRF assay
[27] = biological target: T3, JAK2/TYK2; assay: Inhibition of JAK2/TYK2 signal transduction pathway in human NK92 cells assessed as […] induced IFNgamma expression incubated for 24 hrs by ELISA assay; assay type: cell-based

T4 sequence (P23458 whole entry): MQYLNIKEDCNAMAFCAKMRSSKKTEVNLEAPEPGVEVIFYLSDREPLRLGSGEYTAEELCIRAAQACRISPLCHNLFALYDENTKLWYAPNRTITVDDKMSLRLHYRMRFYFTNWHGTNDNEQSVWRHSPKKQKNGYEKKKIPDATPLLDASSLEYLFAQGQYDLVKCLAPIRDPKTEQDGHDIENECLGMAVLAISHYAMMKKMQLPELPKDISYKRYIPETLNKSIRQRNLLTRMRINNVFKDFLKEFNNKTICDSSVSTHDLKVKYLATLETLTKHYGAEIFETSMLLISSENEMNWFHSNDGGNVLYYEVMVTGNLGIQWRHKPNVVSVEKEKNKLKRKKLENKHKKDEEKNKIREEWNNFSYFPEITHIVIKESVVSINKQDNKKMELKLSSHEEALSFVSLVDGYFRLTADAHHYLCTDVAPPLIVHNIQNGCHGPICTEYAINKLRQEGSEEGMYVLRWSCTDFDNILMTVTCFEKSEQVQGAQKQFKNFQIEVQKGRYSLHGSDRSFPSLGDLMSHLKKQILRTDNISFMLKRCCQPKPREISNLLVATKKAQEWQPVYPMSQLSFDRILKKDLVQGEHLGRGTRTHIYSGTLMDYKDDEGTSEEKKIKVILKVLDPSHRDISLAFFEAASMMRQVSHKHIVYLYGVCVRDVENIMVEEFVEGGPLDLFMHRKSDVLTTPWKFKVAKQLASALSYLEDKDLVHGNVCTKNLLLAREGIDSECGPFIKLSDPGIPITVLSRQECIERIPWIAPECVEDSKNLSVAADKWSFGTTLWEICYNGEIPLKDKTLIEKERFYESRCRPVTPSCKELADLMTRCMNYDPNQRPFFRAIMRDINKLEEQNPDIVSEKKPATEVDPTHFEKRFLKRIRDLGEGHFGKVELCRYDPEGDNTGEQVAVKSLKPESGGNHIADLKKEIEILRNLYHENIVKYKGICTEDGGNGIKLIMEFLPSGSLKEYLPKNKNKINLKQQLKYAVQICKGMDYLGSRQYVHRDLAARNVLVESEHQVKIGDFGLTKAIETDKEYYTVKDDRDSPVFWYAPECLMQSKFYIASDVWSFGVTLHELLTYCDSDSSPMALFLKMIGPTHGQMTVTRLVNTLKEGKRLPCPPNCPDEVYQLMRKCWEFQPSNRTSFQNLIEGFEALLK
T5 sequence (O60674 whole entry): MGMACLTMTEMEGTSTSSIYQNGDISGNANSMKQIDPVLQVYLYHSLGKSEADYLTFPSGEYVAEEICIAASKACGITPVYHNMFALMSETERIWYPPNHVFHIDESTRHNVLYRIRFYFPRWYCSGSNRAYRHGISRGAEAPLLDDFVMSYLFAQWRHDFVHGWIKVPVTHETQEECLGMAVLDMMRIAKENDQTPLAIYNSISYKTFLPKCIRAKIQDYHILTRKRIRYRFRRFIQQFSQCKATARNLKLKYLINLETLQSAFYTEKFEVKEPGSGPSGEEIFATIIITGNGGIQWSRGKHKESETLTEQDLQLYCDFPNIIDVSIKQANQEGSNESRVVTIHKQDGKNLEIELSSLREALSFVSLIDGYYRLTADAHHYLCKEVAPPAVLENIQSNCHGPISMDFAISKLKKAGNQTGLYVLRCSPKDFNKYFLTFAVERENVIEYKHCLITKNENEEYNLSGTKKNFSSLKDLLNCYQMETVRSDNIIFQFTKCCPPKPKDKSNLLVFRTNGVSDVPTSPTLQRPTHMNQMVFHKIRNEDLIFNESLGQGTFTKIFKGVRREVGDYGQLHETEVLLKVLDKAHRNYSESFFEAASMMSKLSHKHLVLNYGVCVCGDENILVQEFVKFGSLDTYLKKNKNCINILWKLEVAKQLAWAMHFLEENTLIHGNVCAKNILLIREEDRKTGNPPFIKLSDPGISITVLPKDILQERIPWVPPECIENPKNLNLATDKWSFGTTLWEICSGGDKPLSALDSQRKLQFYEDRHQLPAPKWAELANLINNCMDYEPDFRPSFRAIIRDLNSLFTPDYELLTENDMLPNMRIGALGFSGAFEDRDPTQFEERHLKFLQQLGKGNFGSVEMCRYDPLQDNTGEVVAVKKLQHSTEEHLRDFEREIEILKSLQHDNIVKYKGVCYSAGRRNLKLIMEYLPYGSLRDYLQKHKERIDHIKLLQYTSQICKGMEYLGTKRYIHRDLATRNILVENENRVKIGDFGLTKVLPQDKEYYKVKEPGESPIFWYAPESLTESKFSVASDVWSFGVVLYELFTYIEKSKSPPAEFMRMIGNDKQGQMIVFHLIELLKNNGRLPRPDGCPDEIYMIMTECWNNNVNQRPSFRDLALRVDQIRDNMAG
T3 sequence (O60674 whole entry): as above
T3 sequence (P29597 whole entry): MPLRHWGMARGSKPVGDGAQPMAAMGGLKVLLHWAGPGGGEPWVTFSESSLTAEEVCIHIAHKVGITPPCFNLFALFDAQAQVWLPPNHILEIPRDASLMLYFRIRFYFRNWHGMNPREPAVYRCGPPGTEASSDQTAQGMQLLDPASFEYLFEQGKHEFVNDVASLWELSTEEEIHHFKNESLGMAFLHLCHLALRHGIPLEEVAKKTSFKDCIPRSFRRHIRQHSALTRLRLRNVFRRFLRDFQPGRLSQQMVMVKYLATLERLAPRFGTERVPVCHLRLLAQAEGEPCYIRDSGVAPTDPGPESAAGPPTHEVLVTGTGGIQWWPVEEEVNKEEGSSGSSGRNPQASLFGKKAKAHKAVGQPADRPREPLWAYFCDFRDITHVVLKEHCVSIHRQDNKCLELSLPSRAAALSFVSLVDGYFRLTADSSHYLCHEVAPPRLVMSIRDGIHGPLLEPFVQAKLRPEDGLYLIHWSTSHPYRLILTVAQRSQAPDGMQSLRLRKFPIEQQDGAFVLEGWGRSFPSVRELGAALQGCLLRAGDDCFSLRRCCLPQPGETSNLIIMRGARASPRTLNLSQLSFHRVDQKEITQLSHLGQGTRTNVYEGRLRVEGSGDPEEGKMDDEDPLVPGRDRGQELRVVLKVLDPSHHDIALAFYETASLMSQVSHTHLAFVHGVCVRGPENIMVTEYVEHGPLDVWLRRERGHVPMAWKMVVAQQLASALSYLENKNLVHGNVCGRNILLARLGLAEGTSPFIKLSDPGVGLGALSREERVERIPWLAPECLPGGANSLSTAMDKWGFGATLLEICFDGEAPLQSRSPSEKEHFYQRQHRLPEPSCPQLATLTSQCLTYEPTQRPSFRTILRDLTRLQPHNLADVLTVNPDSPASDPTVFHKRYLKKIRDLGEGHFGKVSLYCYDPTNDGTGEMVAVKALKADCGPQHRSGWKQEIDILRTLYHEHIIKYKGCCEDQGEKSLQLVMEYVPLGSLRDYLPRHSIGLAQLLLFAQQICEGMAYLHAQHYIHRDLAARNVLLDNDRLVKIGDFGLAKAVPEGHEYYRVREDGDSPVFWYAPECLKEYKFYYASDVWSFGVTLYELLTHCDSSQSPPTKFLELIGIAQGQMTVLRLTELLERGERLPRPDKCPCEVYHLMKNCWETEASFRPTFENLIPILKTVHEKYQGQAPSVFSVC
T2 sequence (P29597 whole entry, the tested form may be a part): as the sequence (P29597 whole entry) above

Work on `Cn1cc(-c2cn3ncnc3c(-c3ccn([C@]4(CC#N)C[C@H](C#N)C4)c3)n2)cn1` yielded an IC50 [1] of over 5000 nM.

Compound `[2H]C([2H])([2H])NC(=O)c1nnc(Nc2ccc(N3CC(O)C3)cn2)cc1Nc1cccc(-c2ncn(C)n2)c1OC` has a Kd [2] of 0.005 nM and an IC50 [3] of 83 nM.

Work on `CNc1cc(Nc2cccn(-c3cnc(C(C)(C)O)cn3)c2=O)nc2c(C(=O)NC3CCC3)cnn12` yielded an IC50 [4] of under 500 nM, an inhibition [5] of under 50% and an IC50 [6] of under 500 nM. It also gave a Kd [7] of 5000 nM, an inhibition [8] of under 50% and a Kd [2] of under 0.2 nM.

In the case of `[2H]C([2H])([2H])NC(=O)c1nnc(Nc2ccc(F)cn2)cc1Nc1cccc2c1N(C)Cc1n[nH]c(=O)n1-2`, the IC50 [9] is reported as under 30 nM and the IC50 [10] is reported as under 30 nM.

Compound `CNc1cc(Nc2cccnc2OC)nc2c(C(=O)NCC3(CO)CC3)cnn12` has an IC50 [4] of under 500 nM, an inhibition [5] of under 50% and an IC50 [6] of under 500 nM. For the same compound, the Kd [7] was 5000 nM, the inhibition [8] was under 50% and the Kd [2] was under 0.2 nM.

For `CNc1cc(Nc2ccccc2OC)nc2c(C(=O)N[C@@H]3CCN(C)C3=O)cnn12`, the IC50 [11] was 8 nM.

With `[2H]C([2H])([2H])NC(=O)c1nnc(NC(=O)C2CC2)cc1Nc1cccc(-n2cc3c(n2)CN(S(C)(=N)=O)C3)c1OC` (stereo not given) the Kd [2] was 0.009 nM.

Work on `[2H]C([2H])([2H])NC(=O)c1nnc(NC(=O)C2CC2)cc1Nc1cccc(-c2ncc(C(=O)N3CCN(C4CCCC4)CC3)s2)c1OC` yielded an IC50 [12] of 40 nM.

Work on `[2H]C([2H])([2H])CC(=O)c1cnc(NC(=O)C2CC2)cc1Nc1nccc(-c2ncn(C([2H])([2H])[2H])n2)c1OC` yielded a Kd [13] of at most 10 nM, an IC50 [14] of at most 1000 nM and an IC50 [15] of over 10000 nM. The Kd [7] was at most 100 nM, the IC50 [16] was under 100 nM and the Kd [17] was at most 1000 nM.

`COC(=O)c1nnc(NC(=O)C2CC2)cc1Nc1cccc2c1N(C)Cc1cn(C)nc1-2` gave an IC50 [9] of under 30 nM and an IC50 [10] of under 30 nM.

For `COc1cc(Nc2cc(NC(C)=O)ncc2-c2ccc(C(C)(C)O)cn2)nc(S(C)(=O)=O)c1`, the IC50 [18] was over 10000 nM, the Cmax [19] was 8.73 ng/mL and the half-life [20] was 2.07 h. It also gave an AUC(0-t) at 24 h [21] of 19.3 ng·h/mL and an IC50 [22] of 1 nM.

For `[2H]C([2H])([2H])NC(=O)c1nnc(NC(=O)C2CC2)cc1Nc1cccc2c1N(C)Cc1nc(C)nn1-2`, the IC50 [9] was under 30 nM and the IC50 [10] was under 30 nM.

Compound `[2H]C([2H])([2H])NC(=O)c1nnc(NC(=O)C2CC2)cc1Nc1cccc2c1N(C)Cc1cn(C)nc1-2` has an IC50 [9] of under 30 nM and an IC50 [10] of under 30 nM.

`[2H]C([2H])([2H])NC(=O)c1nnc(NC(=O)C2CC2)cc1Nc1cccc2c1N(C)Cc1cn(C([2H])([2H])[2H])nc1-2` gave an IC50 [9] of under 30 nM and an IC50 [10] of under 30 nM.

`NC(=O)c1nnc(-c2c(F)cccc2F)cc1Nc1ccc(N2CCOCC2)cn1` showed an IC50 [23] of 1 nM, an IC50 [24] of 38 nM and an IC50 [25] of 4 nM. For the same compound, the IC50 [26] was under 0.06 nM and the IC50 [27] was 0.08 nM.

`COc1cc(Nc2cc(NC(C)=O)ncc2-c2ccc3c(n2)OCC(C)(C)O3)nc(S(C)(=O)=O)c1` gave an IC50 [18] of 1820 nM, a Cmax [19] of 2820 ng/mL and a half-life [20] of 3.01 h. It also gave an AUC(0-t) at 24 h [21] of 16200 ng·h/mL and an IC50 [22] of 0.053 nM.

`CNc1cc2nn3c(cnc13)C(=O)N[C@H](C)COCc1ccc(OC)c(c1)N2` showed a Kd [13] of 0.002 nM, an IC50 [14] of over 10000 nM and a Kd [7] of 430 nM. The IC50 [16] was 1.2 nM and the Kd [17] was 7300 nM.

Work on `[2H]C([2H])([2H])CC(=O)c1cnc(Nc2cccc(C#N)n2)cc1Nc1cccc(-c2ncn(C([2H])([2H])[2H])n2)c1OC` yielded a Kd [13] of at most 10 nM, an IC50 [14] of at most 100 nM and an IC50 [15] of at most 1000 nM. The Kd [7] was at most 100 nM, the IC50 [16] was under 100 nM and the Kd [17] was over 10000 nM.
